Experimental data from ChEMBL document CHEMBL1201862, “PubChem BioAssay data set” (2004).
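Briefly, cells in 96-well plates were exposed to five compound concentrations for 48 h, and endpoints were estimated by linear interpolation. The concentration for 50% growth inhibition is given as GI50.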 Activity calls are given as the source filed them. No stated cut-off is given here; in the data, active = GI50 up to about 1.1 µM and inactive = higher.

Columns and labels:
Assay in all cases: NCI-60 cell line screen, 48 h
NCI-H460 = test system: NCI-H460
NCI-H522 = test system: NCI-H522
HCT-15 = test system: HCT-15
MDA-MB-435 = test system: MDA-MB-435
SF-268 = test system: SF-268
BT-549 = test system: BT-549
Hs-578T = test system: Hs-578T
M14 = test system: M14
MOLT-4 = test system: MOLT-4
SW-620 = test system: SW-620
IGROV-1 = test system: IGROV-1
UACC-257 = test system: UACC-257
ACHN = test system: ACHN
Malme-3M = test system: Malme-3M
786-0 = test system: 786-0
MDA-MB-231 = test system: MDA-MB-231
SN12C = test system: SN12C
OVCAR-3 = test system: OVCAR-3
A498 = test system: A498

Row | SMILES | GI50 (NCI-H460) | GI50 (NCI-H522) | GI50 (HCT-15) [µM] | GI50 (MDA-MB-435) | GI50 (SF-268) | GI50 (BT-549) | GI50 (Hs-578T) | GI50 (M14) | GI50 (MOLT-4) | GI50 (SW-620) | GI50 (IGROV-1) | GI50 (UACC-257) | GI50 (ACHN) | GI50 (Malme-3M) | GI50 (786-0) | GI50 (MDA-MB-231) | GI50 (SN12C) | GI50 (OVCAR-3) | GI50 (A498)
1 | CC(C)C1=CC23CCC4C(C)(C(=O)O)CCCC4(C)C2CC1C1C(=O)N(c2ccc(C(=O)O)cc2)C(=O)C13 (configuration not stated) | > 100 µM (inactive) | > 100 µM (inactive) | > 100 | > 100 µM (inactive) | > 100 µM (inactive) | > 100 µM (inactive) | > 100 µM (inactive) | > 100 µM (inactive) | > 100 µM (inactive) | > 100 µM (inactive) | > 100 µM (inactive) | > 100 µM (inactive) | > 100 µM (inactive) | > 100 µM (inactive) | > 100 µM (inactive) | > 100 µM (inactive) | > 100 µM (inactive) | > 100 µM (inactive) | 
2 | CCN(CC)c1ccc2cc(-c3nnc(-c4ccccc4)[nH]3)c(=O)oc2c1 | 82 µM (inactive) | 18.7 µM (inactive) | > 100 | 41.9 µM (inactive) | 62.8 µM (inactive) | 25.2 µM (inactive) | 39.9 µM (inactive) | > 100 µM (inactive) | > 100 µM (inactive) | 33.7 µM (inactive) | 17.7 µM (inactive) | > 100 µM (inactive) | 36.7 µM (inactive) | 83 µM (inactive) | 14.3 µM (inactive) |  |  | 40.5 µM (inactive) | 22.9 µM (inactive)
3 | Cn1c(C(C#N)c2cc(Cl)ncn2)nc2ccccc21 (configuration not stated) | > 100 µM (inactive) | > 100 µM (inactive) | > 100 | > 100 µM (inactive) | > 100 µM (inactive) | > 100 µM (inactive) |  | > 100 µM (inactive) | > 100 µM (inactive) | > 100 µM (inactive) | > 100 µM (inactive) | > 100 µM (inactive) | > 100 µM (inactive) | > 100 µM (inactive) | > 100 µM (inactive) | > 100 µM (inactive) | > 100 µM (inactive) | > 100 µM (inactive) | > 100 µM (inactive)
4 | N#CC(c1ccccc1)c1cccc2ccccc12 (configuration not stated) | 35.8 µM (inactive) | 22 µM (inactive) | 37.9 | 20.2 µM (inactive) | 19.9 µM (inactive) |  | 36.7 µM (inactive) | 30.6 µM (inactive) | 17.5 µM (inactive) | 38.4 µM (inactive) | 19.9 µM (inactive) | 24.4 µM (inactive) | 44.8 µM (inactive) | 21.5 µM (inactive) | 69.5 µM (inactive) | 48.6 µM (inactive) | 68.4 µM (inactive) | 29.9 µM (inactive) | 30.4 µM (inactive)
5 | Cc1cc(C[C@H]2O[C@@H]3OC(C)(C)O[C@@H]3[C@H]3OC(C)(C)O[C@H]32)c2ccccc2n1 | 30 µM (inactive) | 16 µM (inactive) | 76.4 | > 100 µM (inactive) | > 100 µM (inactive) |  | 26.4 µM (inactive) |  | 31.8 µM (inactive) | > 100 µM (inactive) | 49.8 µM (inactive) | > 100 µM (inactive) | > 100 µM (inactive) | 64.9 µM (inactive) | > 100 µM (inactive) |  | > 100 µM (inactive) |  | > 100 µM (inactive)
6 | O=C(N/N=C/c1ccc([N+](=O)[O-])cc1)Nc1ccc(Br)cc1 | > 100 µM (inactive) | 64.7 µM (inactive) | > 100 | 32.6 µM (inactive) | 52.2 µM (inactive) | > 100 µM (inactive) | > 100 µM (inactive) | 45.2 µM (inactive) | 36.4 µM (inactive) | 52 µM (inactive) | 55.5 µM (inactive) | > 100 µM (inactive) | 60.7 µM (inactive) | > 100 µM (inactive) | 84.7 µM (inactive) | > 100 µM (inactive) | 60 µM (inactive) | 32.2 µM (inactive) | 
7 | Cc1ccc(C(=O)/C=C2\Nc3ccccc3N=C2NC23CC4CC(CC(C4)C2)C3)cc1 |  | > 10 µM (inactive) | > 10 | > 10 µM (inactive) | > 10 µM (inactive) | > 10 µM (inactive) | > 10 µM (inactive) | > 10 µM (inactive) | 7.8 µM (inactive) | 7.24 µM (inactive) | > 10 µM (inactive) | > 10 µM (inactive) | > 10 µM (inactive) | > 10 µM (inactive) | > 10 µM (inactive) | > 10 µM (inactive) | > 10 µM (inactive) | > 10 µM (inactive) | 
8 | CCO/C=N/C1=C(C#N)C(c2ccc(OC)c(OC)c2)c2c(-c3ccccc3)nn(-c3ccccc3)c2O1 (configuration not stated) | > 100 µM (inactive) | 10.6 µM (inactive) | 5.11 | 17 µM (inactive) | 18.5 µM (inactive) | 8.13 µM (inactive) | 20.5 µM (inactive) | 21.4 µM (inactive) | 8.02 µM (inactive) | 11.8 µM (inactive) | 3.16 µM (inactive) | > 100 µM (inactive) | 13.2 µM (inactive) | 19 µM (inactive) | 13.6 µM (inactive) | 19.2 µM (inactive) | 14.8 µM (inactive) | 16.1 µM (inactive) | 
9 | COc1cc(C=O)ccc1O [VANILLIN] | > 100 µM (inactive) | > 100 µM (inactive) | > 100 | > 100 µM (inactive) | > 100 µM (inactive) |  | > 100 µM (inactive) | > 100 µM (inactive) | > 100 µM (inactive) | > 100 µM (inactive) | > 100 µM (inactive) | > 100 µM (inactive) | > 100 µM (inactive) | > 100 µM (inactive) | > 100 µM (inactive) | > 100 µM (inactive) | > 100 µM (inactive) | > 100 µM (inactive) | 
10 | O=P(O)(O)c1ccc(-c2ccc(I)cc2)cc1 | > 100 µM (inactive) | > 100 µM (inactive) | > 100 |  | > 100 µM (inactive) | > 100 µM (inactive) | > 100 µM (inactive) | > 100 µM (inactive) | > 100 µM (inactive) | > 100 µM (inactive) | > 100 µM (inactive) | > 100 µM (inactive) | > 100 µM (inactive) | > 100 µM (inactive) | > 100 µM (inactive) | > 100 µM (inactive) | > 100 µM (inactive) |  | 
11 | CCn1c(=O)c2nc(SC)sc2n(-c2ccccc2)c1=O | > 100 µM (inactive) | > 100 µM (inactive) | > 100 | > 100 µM (inactive) | > 100 µM (inactive) |  |  | > 100 µM (inactive) | > 100 µM (inactive) | > 100 µM (inactive) | > 100 µM (inactive) | > 100 µM (inactive) | > 100 µM (inactive) | > 100 µM (inactive) | > 100 µM (inactive) | > 100 µM (inactive) | > 100 µM (inactive) | > 100 µM (inactive) | 
12 | CC1(C)[C@@H](Cn2cnc3c(Cl)nc(N)nc32)CC[C@@]1(C)CO |  |  | 35.9 | 26.4 µM (inactive) | 20.8 µM (inactive) |  | 19.7 µM (inactive) | 40.3 µM (inactive) |  | 42.4 µM (inactive) |  | 30.4 µM (inactive) | > 100 µM (inactive) |  | > 100 µM (inactive) | 21.3 µM (inactive) | 57.3 µM (inactive) | 33 µM (inactive) | > 100 µM (inactive)
13 | COc1cc(/C=C2\C[C@H]3[C@@H]4CCc5cc(OCCN6CCCC6)ccc5[C@H]4CC[C@]3(C)C2=O)cc(OC)c1OC | 1.76 µM (inactive) |  | 1.68 | 1.61 µM (inactive) |  | 15.5 µM (inactive) |  | 1.67 µM (inactive) | 1.31 µM (inactive) | 1.91 µM (inactive) | 1.57 µM (inactive) | 2.2 µM (inactive) | 1.79 µM (inactive) |  | 1.85 µM (inactive) | 1.79 µM (inactive) | 1.72 µM (inactive) |  | 1.78 µM (inactive)
14 | O=C1C(Br)=CC2(C=C1Br)CCNC1=C2C(=O)c2cccnc2C1=O | 4.13 µM (inactive) | 4.65 µM (inactive) | 5.14 | 1.89 µM (inactive) | 13.3 µM (inactive) |  | 5.42 µM (inactive) | 8.65 µM (inactive) | 5.69 µM (inactive) | 11.5 µM (inactive) | 9.18 µM (inactive) | 8.36 µM (inactive) | 17 µM (inactive) | 9.46 µM (inactive) | 15.3 µM (inactive) | 14.1 µM (inactive) | 12.5 µM (inactive) | 6.01 µM (inactive) | 
15 | O=[N+]([O-])c1c2nc3n(c2cc2c1nc1n2CCC1)CCC3 | > 100 µM (inactive) | > 100 µM (inactive) | > 100 | > 100 µM (inactive) | > 100 µM (inactive) |  | > 100 µM (inactive) | > 100 µM (inactive) | > 100 µM (inactive) | > 100 µM (inactive) | > 100 µM (inactive) | > 100 µM (inactive) | > 100 µM (inactive) | 93.1 µM (inactive) | > 100 µM (inactive) | > 100 µM (inactive) | > 100 µM (inactive) | > 100 µM (inactive) | > 100 µM (inactive)
16 | COc1ccc(C2CC(=O)CC(c3ccc(OC)cc3)C23C(=O)NC(=O)NC3=O)cc1 (configuration not stated) | 35.8 µM (inactive) | 23.3 µM (inactive) | 67.8 | 22.7 µM (inactive) | 44.1 µM (inactive) | 32.7 µM (inactive) |  | 52.5 µM (inactive) | 19 µM (inactive) | 18.7 µM (inactive) | 26.2 µM (inactive) | 38.1 µM (inactive) | 31.3 µM (inactive) | 25.9 µM (inactive) | 30.5 µM (inactive) | 39.1 µM (inactive) | 46.8 µM (inactive) | 19.3 µM (inactive) | 
